Source: PubChem BioAssay AID652130 (The Scripps Research Institute Molecular Screening Center, 2013)
Activity calls are given as the source filed them. The rule behind the calls is not given here.

Biological target: Perilipin-5 (Homo sapiens) + 1-acylglycerol-3-phosphate O-acyltransferase ABHD5 (Homo sapiens) (UniProt Q00G26+Q8WTS1)
Experiment: PubChem AID 652130
Conditions: ABHD5/PLIN5 interaction, luminescence, HEK293T-produced proteins

Sequence of Perilipin-5 (Homo sapiens) + 1-acylglycerol-3-phosphate O-acyltransferase ABHD5 (Homo sapiens) (Q00G26 whole entry, looked up): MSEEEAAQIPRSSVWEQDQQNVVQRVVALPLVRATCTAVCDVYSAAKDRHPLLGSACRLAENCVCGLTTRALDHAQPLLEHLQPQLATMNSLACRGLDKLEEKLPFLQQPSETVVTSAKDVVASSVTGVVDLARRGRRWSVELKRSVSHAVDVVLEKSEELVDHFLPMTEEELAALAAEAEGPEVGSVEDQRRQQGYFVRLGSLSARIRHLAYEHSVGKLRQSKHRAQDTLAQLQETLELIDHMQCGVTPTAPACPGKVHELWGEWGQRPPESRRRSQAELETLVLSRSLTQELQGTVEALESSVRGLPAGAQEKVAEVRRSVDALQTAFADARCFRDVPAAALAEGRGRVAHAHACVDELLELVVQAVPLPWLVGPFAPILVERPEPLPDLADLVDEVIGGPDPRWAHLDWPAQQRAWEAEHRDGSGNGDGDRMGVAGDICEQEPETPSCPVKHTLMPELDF
Sequence of Perilipin-5 (Homo sapiens) + 1-acylglycerol-3-phosphate O-acyltransferase ABHD5 (Homo sapiens) (Q8WTS1 whole entry, looked up): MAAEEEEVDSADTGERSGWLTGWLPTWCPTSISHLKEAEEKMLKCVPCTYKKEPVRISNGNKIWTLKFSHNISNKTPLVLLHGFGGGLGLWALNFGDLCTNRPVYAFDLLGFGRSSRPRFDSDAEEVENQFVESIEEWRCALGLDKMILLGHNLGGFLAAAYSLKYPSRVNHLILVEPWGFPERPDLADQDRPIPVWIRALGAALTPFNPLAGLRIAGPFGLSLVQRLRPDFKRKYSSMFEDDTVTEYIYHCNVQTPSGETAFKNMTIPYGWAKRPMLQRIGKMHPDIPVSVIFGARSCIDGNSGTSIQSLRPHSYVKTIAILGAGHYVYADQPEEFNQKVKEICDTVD

Row | IC50 | Compound
1 | > 39.8 µM (inactive) | CCCCCNC(=O)Nc1ccc2c(c1)Sc1ccccc1C(=O)N2C
2 | > 39.8 µM (inactive) | CN1C(=O)c2ccccc2Oc2ccc(NC(=O)c3cc4ccccc4[nH]3)cc21
3 | > 39.8 µM (inactive) | CCCC(=O)N(CCCN1CCOCC1)c1nc2ccc(Cl)cc2s1
4 | > 39.8 µM (inactive) | CN(C)CCCN(C(=O)C1CCCCC1)c1nc2cc(Cl)ccc2s1
5 | > 39.8 µM (inactive) | CN(C)CCCN(C(=O)CCc1ccccc1)c1nc2ccc(Cl)cc2s1
6 | > 39.8 µM (inactive) | CN(C)CCCN(C(=O)c1cc2ccccc2oc1=O)c1nc2ccc(Cl)cc2s1
7 | > 39.8 µM (inactive) | CC(NC(=O)CN1CCN(S(=O)(=O)c2ccc3c(c2)OCCCO3)CC1)c1cc2ccccc2o1 (configuration not stated)
8 | > 39.8 µM (inactive) | CN(C)CCCN(C(=O)C1CCCCC1)c1nc2cc(Br)ccc2s1
9 | > 39.8 µM (inactive) | CC(C)N1C(=O)c2ccccc2Oc2ccc(NC(=O)c3ccccc3)cc21
10 | 5.6 µM | CN1C(=O)c2ccccc2Sc2ccc(NC(=O)NCCc3cccs3)cc21
11 | inactive | CCCNC(=O)Nc1ccc2c(c1)N(CC)C(=O)c1ccccc1S2
12 | > 39.8 µM (inactive) | CCCC(=O)Nc1ccc2c(c1)C(=O)N(C)c1ccccc1O2
13 | inactive | CCCCCCCNC(=O)Nc1ccc2c(c1)Sc1ccccc1C(=O)N2C
14 | > 39.8 µM (inactive) | CN(C)CCCN(C(=O)Cc1ccc(F)cc1)c1nc2ccc(Cl)cc2s1
15 | > 39.8 µM (inactive) | CCCCCCNC(=O)Nc1ccc2c(c1)Sc1ccccc1C(=O)N2C

Further lines, the molecule ahead of its results:

Row | Compound | IC50
16 | CCS(=O)(=O)c1ncc(Cl)c(C(=O)Nc2ccc(C)cc2)n1 | 4.23 µM
17 | O=C(C1COc2ccccc2O1)N1CCN(S(=O)(=O)c2ccc3c(c2)OCCO3)CC1 (configuration not stated) | > 39.8 µM (inactive)
18 | Cc1ccc2cc(CC(=O)N3CCN(S(=O)(=O)c4ccc5c(c4)OCCO5)CC3)oc2c1 | inactive
19 | O=C(Cc1ccc2c(c1)CCCC2)N1CCN(S(=O)(=O)c2ccc3c(c2)OCCO3)CC1 | inactive
20 | Cc1ccc(CS(=O)(=O)c2ncc(Cl)c(C(=O)NCc3ccc4c(c3)OCO4)n2)cc1 | 3.36 µM
21 | NS(=O)(=O)c1ccc(NC(=O)c2nc(S(=O)(=O)Cc3ccccc3)ncc2Cl)cc1 | 4.68 µM
22 | CCCC(=O)Nc1ccc2c(c1)C(=O)N(C)c1cc(C)ccc1O2 | > 39.8 µM (inactive)
23 | O=C(CCn1cnc2ccccc21)N1CCN(S(=O)(=O)c2ccc3c(c2)OCCO3)CC1 | > 39.8 µM (inactive)
24 | COc1ccc(CCNC(=O)c2nc(S(=O)(=O)Cc3ccc(F)cc3)ncc2Cl)cc1OC | 2.82 µM
25 | CN1C(=O)c2ccccc2Oc2ccc(NC(=O)c3cccs3)cc21 | > 39.8 µM (inactive)
26 | CCS(=O)(=O)c1ncc(Cl)c(C(=O)Nc2ccc(S(N)(=O)=O)cc2)n1 | 8.4 µM
27 | O=C(Nc1ccc2ccccc2c1)c1nc(S(=O)(=O)Cc2ccccc2)ncc1Cl | 2.36 µM
28 | CCCS(=O)(=O)c1ccc(Cl)c(C(=O)Nc2ccc(C(=O)OCC)cc2)c1 | 6.17 µM
29 | O=C(CCc1c[nH]c2ccccc12)N1CCN(S(=O)(=O)c2ccc3c(c2)OCCO3)CC1 | > 39.8 µM (inactive)
30 | COc1ccc(CC(=O)N2CCCN(S(=O)(=O)c3ccc(C)cc3)CC2)cc1OC | > 39.8 µM (inactive)
31 | O=C(c1nc(S(=O)(=O)Cc2ccccc2)ncc1Cl)N(Cc1ccccc1)Cc1ccco1 | 1.76 µM

Row | Compound | IC50
32 | Cc1ccc(CS(=O)(=O)c2ncc(Cl)c(C(=O)Nc3nnc(C(C)C)s3)n2)cc1 | > 39.8 µM (inactive)
33 | Cc1ccc(NC(=O)c2nc(S(C)(=O)=O)ncc2Cl)cc1 | 3.83 µM
34 | CS(=O)(=O)c1ncc(Cl)c(C(=O)Nc2ccc(C(F)(F)F)cc2)n1 | 1.62 µM
35 | CCCS(=O)(=O)c1ncc(Cl)c(C(=O)Nc2ccc(C(=O)OC)cc2)n1 | 6.37 µM
36 | CN1C(=O)c2ccccc2Sc2ccc(NC(=O)NCCCc3ccccc3)cc21 | 1.99 µM
37 | O=C(CCc1nc2ccccc2s1)N1CCN(S(=O)(=O)c2ccc3c(c2)OCCO3)CC1 | inactive
38 | Cc1ccc(CS(=O)(=O)c2ncc(Cl)c(C(=O)N3CCN(C)CC3)n2)cc1 | 5.9 µM
39 | O=C(Cc1cccc(F)c1)N1CCN(S(=O)(=O)c2ccc3c(c2)OCCO3)CC1 | > 39.8 µM (inactive)
40 | COc1ccc(CC(=O)N2CCN(S(=O)(=O)c3ccc4c(c3)OCCCO4)CC2)cc1 | > 39.8 µM (inactive)
41 | CN1C(=O)c2ccccc2Sc2ccc(NC(=O)NCCc3ccccc3)cc21 | 4.37 µM
42 | CCc1ccc2c(CC(=O)N3CCN(S(=O)(=O)c4ccc5c(c4)OCCO5)CC3)coc2c1 | 3.46 µM
43 | COc1ccc(OCC(=O)Nc2ccc3c(c2)N(C(C)C)C(=O)c2ccccc2O3)cc1 | > 39.8 µM (inactive)
44 | Cc1ccc2c(CC(=O)N3CCN(S(=O)(=O)c4ccc5c(c4)OCCCO5)CC3)coc2c1C | 4.85 µM
45 | Cc1ccc(CS(=O)(=O)c2ncc(Cl)c(C(=O)Nc3cccc(C(F)(F)F)c3)n2)cc1 | 2.46 µM
46 | Cc1ccc(CS(=O)(=O)c2ncc(Cl)c(C(=O)Nc3cccc4ccccc34)n2)cc1 | 2.7 µM
47 | CN(C(=O)c1nc(S(C)(=O)=O)ncc1Cl)c1ccccc1 | 3.65 µM
